Experimental data from patent publication US20250381242A1 (INVAIO SCIENCES, INC., priority 2024, published 2025).
Positions of bridges follow the written chain, without caps; N, C: chain ends. Residues, ends and D or L forms follow the SMILES beside them. No end group written: not given here.

How the values were obtained:
[1] = system: E. amylovora; conditions: 24 h, 10 μM
[2] = system: A. tumefaciens; conditions: 24 h, 10 μM
[3] = system: X. citri; assay: Bacterial growth inhibition by OD600 absorbance, X. citri; type: cell-based, X. citri subsp. citri (ATCC 49118); conditions: peptide 10 μM, 24 hours at 30° C., OD 600 nm
Procedure: (§1) Antimicrobial activity of antimicrobial peptides was tested against the agricultural microbial pests A. tumefaciens, E. amylovora, E. coli, and X. citri, using OD absorbance measurement to detect bacterial growth.
(§2) Antimicrobial peptides were synthesized using solid phase peptide synthesis method and resuspended in 10% DMSO to a 1 mM stock concentration. The stock solution was aliquoted in cryovials and stored at −80° C.
(§3) An aliquot of 198 μl of the bacterial culture was added to each well in a 96-well plate and 2 μl of a 1 mM peptide stock solution was added to each well, for a final treatment concentration of 10 μM of a given peptide. Media only wells were included to control for contamination. The positive controls were 50 μg/ml oxytetracycline hydrochloride and 500 μg/ml streptomycin sulfate. A 0.1% DMSO treatment was included as a negative control.
(§4) An initial absorbance reading of the bacterial suspensions was taken at 600 nm. Then, the bacteria were grown in an incubator at 30° C. (A. tumefaciens, E. amylovora, X. citri) or 37° C. (E. coli) for 24 hours, after which the final absorbance reading was measured. Using the initial and final absorbance reading compared to negative and positive controls, the percent inhibition of the bacterial strain by given peptide treatment was determined.

[4] = system: E. coli; assay: Bacterial growth inhibition by OD600 absorbance, E. coli; type: cell-based, E. coli (DH5-alpha); conditions: peptide 10 μM, 24 hours at 37° C., OD 600 nm
Procedure: as §1, §2, §3, §4

| Compound | growth inhibition, E. amylovora [1] | growth inhibition, A. tumefaciens [2] | growth inhibition, X. citri [3] | growth inhibition, E. coli [4] |
| --- | --- | --- | --- | --- |
| VKLYPVKLYP [compound 143] | <90% | <90% | <90% | <90% |
| AMWKDVLKKIGTVALHAGKAALGAVADTISQ [compound 17] | <90% | 100.00% | 100.00% | <90% |
| KKVVFKVKFK [compound 142] | <90% | <90% | <90% | <90% |
| KKLTLWLTLKK [compound 140] | <90% | <90% | <90% | <90% |
| AAKAWLKLWAKAA [compound 135] | <90% | <90% | <90% | <90% |
| CC[C@H](C)[C@H](NC(=O)[C@H](CO)NC(=O)[C@H](CC(N)=O)NC(=O)[C@H](CC(C)C)NC(=O)[C@H](Cc1ccc(O)cc1)NC(=O)[C@H](CCCCN)NC(=O)[C@H](CCCCN)NC(=O)[C@@H](NC(=O)[C@H](C)NC(=O)[C@H](CCSC)NC(=O)[C@H](CCC(N)=O)NC(=O)[C@H](CCCCN)NC(=O)[C@H](CCCNC(=N)N)NC(=O)[C@H](CC(C)C)NC(=O)[C@H](CCCNC(=N)N)NC(=O)[C@@H](NC(=O)[C@H](Cc1ccc(O)cc1)NC(=O)[C@H](CC(N)=O)NC(=O)[C@H](CC(=O)O)NC(=O)[C@@H](NC(=O)[C@H](Cc1ccccc1)NC(=O)[C@@H](NC(=O)[C@H](C)NC(=O)[C@H](CC(=O)O)NC(=O)[C@H](CO)NC(=O)[C@@H](N)Cc1c[nH]cn1)C(C)C)[C@@H](C)O)[C@@H](C)O)C(C)C)C(=O)N[C@@H](CC(C)C)C(=O)N[C@@H](CC(N)=O)C(=O)O [compound 12] | <90% | <90% | 93.86% | <90% |
| GWASSIGSILGKFAKGGAQAFLQPK [compound 44] | <90% | <90% | <90% | <90% |
| IRIKIRIKIRIK [compound 123] | <90% | <90% | <90% | <90% |
| VRVKVRVKVRVK [compound 131] | 100.00% | <90% | <90% | 99.54% |
| KWKSFLKTFKSAKKTSLHTALKAISS [compound 26] | <90% | <90% | <90% | <90% |
| KKPLLKKLLKKL [compound 133] | <90% | <90% | <90% | <90% |
| ALWFTMLKKLGTMALHAGKAALGAAANTISQGTQ [compound 9] | 91.75% | 99.90% | 100.00% | <90% |
| FRIRVRVAKKFGKAFVGEIM [compound 64] | <90% | <90% | <90% | <90% |
| VKLVYPLKVKLYP [compound 119] | <90% | <90% | <90% | <90% |
| GMWSKILGHLIR [compound 137] | 100.00% | <90% | <90% | <90% |
| KWKLFKKIGPGKFLHSAKKF [compound 60] | <90% | <90% | <90% | <90% |
| KVVKQWPIGKVVKKVVKKVVK [compound 58] | <90% | <90% | <90% | <90% |
| INLKKLAARIKKKI [compound 112] | <90% | <90% | 100.00% | <90% |

| Compound | growth inhibition, E. amylovora [1] | growth inhibition, A. tumefaciens [2] | growth inhibition, X. citri [3] | growth inhibition, E. coli [4] |
| --- | --- | --- | --- | --- |
| SWLSKTAKKLENSAKKRISEGIAIAIQGGPR [compound 11] | 100.00% | 99.35% | 100.00% | 100.00% |
| DLWNSIKDMAAAAGRAALNAVTGMVNQ [compound 29] | <90% | <90% | <90% | <90% |
| KKLLKLKLKWKK [compound 121] | <90% | <90% | 100.00% | <90% |
| DCLSGRYKGPCAVWDNETCRRVCKEEGRSSGHCSPSLKCWCEGC (disulfide 2-44, 11-33, 19-39, 23-41) [compound 145] | <90% | <90% |  |  |
| RLSRIVVIRVSR [compound 132] | <90% | <90% | <90% | <90% |
| KLRKLFRKLLKLIRKLLR [compound 65] | <90% | <90% | <90% | 95.59% |
| GWGDTFLKTMAKIAKVGPKLLHS [compound 48] | <90% | <90% | <90% | <90% |
| KIKWILKYWKWS [compound 106] | <90% | <90% | <90% | <90% |
| CC[C@H](C)[C@H](NC(=O)CNC(=O)[C@@H]1CCCN1C(=O)CNC(=O)[C@H](CC(C)C)NC(=O)[C@H](CC(N)=O)NC(=O)[C@H](C)NC(=O)[C@H](Cc1ccccc1)NC(=O)[C@H](CC(N)=O)NC(=O)[C@H](C)NC(=O)[C@H](CCCNC(=N)N)NC(=O)[C@H](Cc1ccccc1)NC(=O)[C@H](C)NC(=O)[C@@H](NC(=O)[C@H](CCCNC(=N)N)NC(=O)[C@H](Cc1c[nH]c2ccccc12)NC(=O)[C@H](Cc1ccc(O)cc1)NC(=O)[C@H](CC(=O)O)NC(=O)[C@H](C)NC(=O)[C@H](CC(C)C)NC(=O)CN)[C@@H](C)O)C(=O)N[C@@H](CCCNC(=N)N)C(=O)N[C@@H](CS)C(=O)N[C@@H](CCCCN)C(=O)N[C@@H](CO)C(=O)N[C@@H](C)C(=O)N[C@@H](CCCNC(=N)N)C(=O)N[C@@H](CS)C(=O)O [compound 18] (H-GLADYWRTAFRANFANLGPGIRCKSARC-OH; N-terminus and C-terminus assumed) | <90% | <90% |  |  |
| NAGSLLSGWG [compound 144] | <90% | <90% | <90% | <90% |
| NKVKEWIKYLKSLFS [compound 96] | 100.00% | 100.00% | <90% | <90% |
| INWLKIAKKVKGML [compound 111] | 100.00% | <90% | 100.00% | <90% |
| KWLKKWLKWLKK [compound 102] | 100.00% | 100.00% | <90% | 100.00% |
| FKVQNQHGQVVKIFHH [compound 89] | <90% | <90% | <90% | <90% |
| C[C@@H](O)[C@H](NC(=O)[C@H](CS)NC(=O)[C@@H](N)Cc1c[nH]c2ccccc12)C(=O)N[C@@H](Cc1c[nH]c2ccccc12)C(=O)N[C@@H](CCCCN)C(=O)NCC(=O)N[C@@H](CCC(N)=O)C(=O)N1CCC[C@H]1C(=O)N[C@@H](CS)C(=O)N[C@@H](Cc1c[nH]c2ccccc12)C(=O)O [compound 3] (H-WCTWKGQPCW-OH; N-terminus and C-terminus assumed) | <90% | <90% |  |  |
| KWLLKLKLKLLK [compound 125] | <90% | <90% | <90% | <90% |
| VRLRIRVRVIRK [compound 118] | 100.00% | 100.00% | 100.00% | 100.00% |
